From patent US4423218A, “Antibiotic neplanocin A” (Toyo Jozo Kabushiki Kaisha, priority 1978, dated 1983) come the findings set out here.

In data set [1] the test system is Helminthosporium oryzae M 0306. Nature of the data set: Growth inhibitory activity on plant pathogenic fungi (agar plate). Type of data set: cell-based. Conditions: Bipolaris oryzae, M0306; 100 γ/ml solution, agar plate of Helminthosporium oryzae M 0306; read-out: inhibitory zone diameter. From the text:
(1) Growth inhibitory activity on plant pathogenic fungi: […]

A further data set in a line: in vivo. Conditions: mouse, ip, mice.
Data set [2] can be described thus: Repeated intraperitoneal administration for 14 days, mortality. Type of data set: in vivo. To be noted: intraperitoneally for 14 days, 5 mg/kg/day.
A short description of another data set: Solubility. The format is physicochemical.
A short description of another data set: Nature (basicity). The format is physicochemical.

On to `Nc1ncnc2c1ncn2C1C=C(CO)C(O)C1O` (single isomer, unassigned) [neplanocin A], for which, in data set [1], the zone of inhibition at 100 µg/mL was 18.9 mm. In the data set “in vivo”, this molecule returned an LD50 of 13.7 mg/kg. Moreover, the mortalities result in data set [2] is recorded as “No mortalities were observed”. The Solubility entry was “Soluble” in “Solubility” (acetic acid); “Soluble” in “Solubility” (aqueous acetone); “Insoluble” in the data set “Solubility” (benzene); “Insoluble” in “Solubility” (chloroform); “Soluble” in the data set “Solubility” (dimethylformamide); “Soluble” in the data set “Solubility” (dimethylsulfoxide). The Solubility entry is listed as “Insoluble” in “Solubility” (ethyl acetate), “Insoluble” in “Solubility” (hexane) and “Soluble” in “Solubility” (water). The Nature result in the data set “Nature (basicity)” is on record as “weakly basic”.
